The test system of the test is Akt phosphorylation (S473). Put plainly: Western blot of Akt phosphorylation (S473) in U2-OS cells. The settings on record: 1-hour pre-treatment. The format is cell-based. As to the method: Fig.2: MW01 and MW05 are potent and selective kinase inhibitors. […] Heatmap indicates lower IC50. […] (C) Western blot analysis of NF-κB p65 phosphorylation (S536) and Akt phosphorylation (S473) following 1-hour pre-treatment with DMSO, MW01 (10 µM), MW05 (10µM), PI-103 (1 µM), NU7441 (1 µM), or MU1210 (1 µM) in unstimulated, after 90 min irradiation (IR, 20 Gy), or after 20 min TNFα (10 ng/ml) conditions in U2-OS cells. (D) mRNA expression analysis of CLK2 (top), 48 hours after transfection with siNC, CLK2 si1, or CLK2 si2. mRNA expression analysis of NFKBIA (bottom), 48 hours after transfection with siNC, CLK2 si1, orCLK2 si2. Values are normalized to unstimulated siNC expressing cells. Statistical comparison was made between experimental conditions and respective paired siNC expressing controls. ns: not significant; **, ***, ****: p<0.01, p<0.001, p<0.000. (E) Western blot analysis of U2-OS cells after transfection with siNC or CLK2 si2 unstimulated, after irradiation (IR), or after TNFα treatment. Vinculin used as loading control. (F) IC50 (nM) of all CLK isoforms for MW01 and MW05. (G) Quantification from (E) with CLK2 knockdown and p-p65 quantification (top left and top right, respectively) and CLK4 knockdown and p-p65 (bottom left and bottom right, respectively. ns: not significant; **, ***, ****: p<0.01, p<0.001, p<0.0001.
Cells were collected by scraping and lysed in Baeuerle lysis buffer supplemented with Protease (Thermo Fisher Scientific, 78429) and Phosphatase (Thermo Fisher Scientific, 78420) inhibitors after the appropriate treatment and time point. Proteins were quantified by Bradford assay (Bio-Rad, 5000006) and 20-50 µg of extracted proteins were loaded on 4-20% Protein Gel (Bio-Rad, 4568096) and then transferred onto a PVDF membrane (Bio-Rad, 1620177) using Tris-Glycine buffer with 20% of methanol. Blocking was performed for 1h with 5% not-fat dry milk in PBS 1X. […] The membranes were analyzed by ECL (Thermo Fisher Scientific, 34580) and detected by ChemiDoc XRS+ (Bio-Rad) using ImageLab software (Bio-Rad). […]
On the technique in general: In western blotting, separated proteins are transferred to a membrane and probed.

For `COc1ccc2c(c1OC)c(=O)n1c3ccc(O)cc3c3ccnc2c31` [MW01, 5-Hydroxy-10,11-dimethoxy-9H-benzo[c]indolo[3,2,1-ij][1,5]naphthyridin-9-one], the “reduction of p-Akt” value is “complete reduction”.

Turning to `COc1ccc2cc3c(N)nn(C(=O)c4cccc(N(C)C)c4)c3nc2c1` [MW05, (3-Amino-7-methoxypyrazolo[3,4-b]quinolin-1-yl)-[3-(dimethylamino)phenyl]methanone], the “reduction of p-Akt” value is recorded as “partial reduction”.

The values are drawn from EP4467141A1, “PYRAZOLO-QUINOLINES AS SELECTIVE INHIBITORS OF GENOTOXIC STRESS-INDUCED IKK/NF- KB PATHWAYS FOR CANCER THERAPY” (Max-Delbrück-Centrum für Molekulare Medizin in der …, priority 2023, dated 2024).
